Results from US20090042987A1, “TREATMENT OF NEUROPATHIC PAIN” (priority 2007, published 2009).
“Also recorded” adds a separate entry of the source.

Tested on: drug-naïve STZ-diabetic rats
Assay: von Frey paw withdrawal thresholds, drug-naïve STZ-diabetic rats, Example 2
Type: in vivo, rat
Conditions: for Mean duration of action / Time of peak anti-allodynia post-dosing: 7th twice-daily dose; for Mean (±SEM) AUC (area under the normalized PWT versus time curve) / Mean (±SEM) Peak response (PWT) / Mean (±SEM) % MPR at peak: after 7th consecutive twice-daily dose; for Mean (±SEM) % MPR at peak: 100% MPR = full reversal of tactile allodynia
Procedure: Experimental Animals Ethical approval for this study was obtained from the Animal Experimentation Ethics Committee of The University of Queensland. Adult male Sprague-Dawley (SD) rats (222±4 g) were used for this study. Rats were housed in a temperature controlled room (21+2.0 C) with a 12/12 hour light/dark cycle. Food and water were available ad libitum. Initiation of drug administration occurred at 8-11 weeks post-STZ administration for rats in Experiment 1 (PCT-001) and at 10-12 weeks post-STZ administration for rats in Experiment 2 (PCT-007).
Test Article Tranilast was supplied by the Sponsor and stored at −4° C. until use. Gabapentin (100 mg/kg, dissolved in water for injection) was utilized as the positive control for this study.
Test Article and Vehicle Preparation Test article formulations were prepared freshly on the day of administration by weighing the appropriate amount of bulk powder and suspending it in the required volume of vehicle. Carboxymethyl cellulose ((CMC) 0.5% in water for injection) was utilized as the vehicle for this study.
Test Article Administration. […] The maximum oral gavage volume administered in this study was […]. 4.4
STZ-Diabetic Rat Model of Painful Diabetic Neuropathy. Painful diabetic neuropathy is a common long-term complication of diabetes in humans that develops as a result of a sustained biochemical nerve injury. […] Following the induction of diabetes with intravenous STZ at 70-80 mg/kg, it generally takes 6-8 wks for tactile allodynia, the defining symptom of PDN, to fully develop in both rat hindpaws.
Induction of STZ-Diabetes in Rats. On day 0, rats were anaesthetized with 3% isoflurane:97% O2 and a short polyethylene cannula (0.5 mm ID, 0.8 mm OD) was inserted into the jugular vein to facilitate the intravenous (i.v.) administration of a single dose of streptozotocin (STZ: 70-80 mg/kg). After STZ injection, the cannula was removed and the jugular vein was tied off and the wound was closed. Rats received subcutaneous benzylpenicillin (60 mg) prior to surgery to prevent infection and were kept warm during surgical recovery. Rats were housed singly prior to further experimentation and were monitored daily from the time of STZ administration with regard to general health and well-being.
Von Frey Assessment of Paw Withdrawal Thresholds. Calibrated von Frey filaments were used to determine the lowest mechanical threshold required to evoke a brisk paw withdrawal reflex in the rat hindpaws. Briefly, rats were transferred individually to wire mesh testing cages (20 cm×20 cm×20 cm) and allowed to acclimatize for approximately 10-20 min prior to von Frey testing. Commencing with the von Frey filament that produced the 6 g force, the filament was applied to the plantar surface of the hindpaw until the filament buckled slightly. Absence of a response after 3 s prompted use of the next filament of increasing weight. A withdrawal response within 3 s prompted use of the next filament of decreasing weight. Filaments used produced buckling weights of 2, 4, 6, 8, 10, 12, 14, 16, 18 and 20 g. […] Tactile allodynia is regarded as being fully developed when von Frey PWTs in the injured hindpaws are <6 g.
Restoring von-Frey PWTs in the hindpaws from <6 g to pre-STZ surgery levels (12±2 g) is the treatment goal representing full reversal of tactile allodynia. If drug treatment increases PWTs above pre-surgical baseline values (i.e. >12±2 g), such a response is classified as antinociception. Before administration of STZ, baseline von Frey measurements were assessed. Following STZ administration, baseline PWTs were assessed in the hindpaws at week 8-11 to confirm the development of diabetes-induced tactile allodynia.
Dose-Response Curve for Tranilast in Drug-Naive STZ-Diabetic Rats. […]

[1] = tranilast 100, 200, 300 and 400 mg/kg oral, 7 consecutive twice-daily doses

What does the source list for COc1ccc(/C=C/C(=O)Nc2ccccc2C(=O)O)cc1OC [Tranilast, 2-[[3-(3,4-dimethoxyphenyl)-1-oxo-2-propenyl]amino]benzoic acid]?
Mean (±SEM) von Frey Paw Withdrawal threshold following the 7th consecutive dose (tranilast 300 mg/kg oral twice-daily, time 0.5 h): 8.6 ± 1.5 g; Mean (±SEM) von Frey Paw Withdrawal threshold following the 7th consecutive dose (tranilast 300 mg/kg oral twice-daily, time 0.75 h): 11 ± 1.6 g; Mean (±SEM) von Frey Paw Withdrawal threshold following the 7th consecutive dose (tranilast 300 mg/kg oral twice-daily, time 1 h): 12.2 ± 1.3 g; Mean (±SEM) von Frey Paw Withdrawal threshold following the 7th consecutive dose (tranilast 300 mg/kg oral twice-daily, time 1.25 h): 13 ± 1.3 g; Mean (±SEM) von Frey Paw Withdrawal threshold following the 7th consecutive dose (tranilast 300 mg/kg oral twice-daily, time 1.25 h, listed as tranilast): 13.0 (±1.3) g; Mean (±SEM) von Frey Paw Withdrawal threshold following the 7th consecutive dose (tranilast 300 mg/kg oral twice-daily, time 1.5 h): 12.4 ± 1.1 g; Mean (±SEM) von Frey Paw Withdrawal threshold following the 7th consecutive dose (tranilast 300 mg/kg oral twice-daily, time 2 h): 12.0 ± 2.2 g; Mean (±SEM) von Frey Paw Withdrawal threshold following the 7th consecutive dose (tranilast 300 mg/kg oral twice-daily, time 3 h): 9.0 ± 2.7 g; Relief of tactile allodynia in the hindpaws (tranilast 300 mg/kg oral, 7 consecutive twice-daily doses (n=5)): significant relief of tactile allodynia; AUC of anti-allodynic response versus time compared with vehicle (tranilast 300 mg/kg oral, 7th consecutive twice-daily dose): significantly greater (p<0.05); Mean duration of action (tranilast 300 mg/kg oral): > 3 h; Time of peak anti-allodynia post-dosing (tranilast 300 mg/kg oral): 1 to 1.5 h; Mean (±SEM) AUC (area under the normalized PWT versus time curve) (tranilast 300 mg/kg oral): 17.2 ± 3.3; Mean (±SEM) Peak response (PWT) (tranilast 300 mg/kg oral): 13.0 ± 1.3; Mean (±SEM) % MPR at peak (tranilast 300 mg/kg oral): 147.8 ± 23.6%; Mean (±SEM) von Frey Paw Withdrawal threshold assessed prior to dose (tranilast 400 mg/kg oral twice-daily, prior to dose 1): 5.1 ± 0.5 g; Mean (±SEM) von Frey Paw Withdrawal threshold assessed prior to dose (tranilast 400 mg/kg oral twice-daily, prior to dose 3): 5.1 ± 0.5 g; Mean (±SEM) von Frey Paw Withdrawal threshold assessed prior to dose (tranilast 400 mg/kg oral twice-daily, prior to dose 5): 4.8 ± 0.5 g; Mean (±SEM) von Frey Paw Withdrawal threshold assessed prior to dose (tranilast 400 mg/kg oral twice-daily, prior to dose 7): 5.2 ± 0.5 g; Mean (±SEM) von Frey Paw Withdrawal threshold following the 7th consecutive dose (tranilast 400 mg/kg oral twice-daily, time 0 h (pre-dose)): 5.2 ± 0.4 g; Mean (±SEM) von Frey Paw Withdrawal threshold following the 7th consecutive dose (tranilast 400 mg/kg oral twice-daily, time 0 h (pre-dose), listed as tranilast): 5.2 (±0.4) g; Mean (±SEM) von Frey Paw Withdrawal threshold following the 7th consecutive dose (tranilast 400 mg/kg oral twice-daily, time 0.15 h): 6.0 ± 0 g; Mean (±SEM) von Frey Paw Withdrawal threshold following the 7th consecutive dose (tranilast 400 mg/kg oral twice-daily, time 0.5 h): 6.25 ± 0.2 g; Mean (±SEM) von Frey Paw Withdrawal threshold following the 7th consecutive dose (tranilast 400 mg/kg oral twice-daily, time 0.75 h): 7.5 ± 0.5 g; Mean (±SEM) von Frey Paw Withdrawal threshold following the 7th consecutive dose (tranilast 400 mg/kg oral twice-daily, time 1 h): 8.75 ± 0.25 g; Mean (±SEM) von Frey Paw Withdrawal threshold following the 7th consecutive dose (tranilast 400 mg/kg oral twice-daily, time 1 h, listed as tranilast): 8.8 (±0.3) g; Mean (±SEM) von Frey Paw Withdrawal threshold following the 7th consecutive dose (tranilast 400 mg/kg oral twice-daily, time 1.25 h): 7.8 ± 0.25 g; Mean (±SEM) von Frey Paw Withdrawal threshold following the 7th consecutive dose (tranilast 400 mg/kg oral twice-daily, time 1.5 h): 8.0 ± 0 g; Mean (±SEM) von Frey Paw Withdrawal threshold following the 7th consecutive dose (tranilast 400 mg/kg oral twice-daily, time 2 h): 7.8 ± 0.25 g; Mean (±SEM) von Frey Paw Withdrawal threshold following the 7th consecutive dose (tranilast 400 mg/kg oral twice-daily, time 3 h): 6.5 ± 0.3 g; Mean duration of action (tranilast 400 mg/kg oral): 3 h; Time of peak anti-allodynia post-dosing (tranilast 400 mg/kg oral): 0.75 to 1.25 h; Mean (±SEM) AUC (area under the normalized PWT versus time curve) (tranilast 400 mg/kg oral): 6.3 ± 0.9; Mean (±SEM) Peak response (PWT) (tranilast 400 mg/kg oral): 8.75 ± 0.25; Mean (±SEM) % MPR at peak (tranilast 400 mg/kg oral): 62.2 ± 4.2%; Peak anti-allodynic response compared with vehicle [1]: significantly (p<0.05) greater; Relief of tactile allodynia in the hindpaws [1]: significant relief of tactile allodynia; also recorded: anti-allodynia was produced; % MPR at the time of peak effect compared with vehicle (tranilast 100, 200, 300 and 400 mg/kg oral, 7th consecutive twice-daily dose): significantly greater than that for vehicle; AUC of anti-allodynic response versus time compared with vehicle (tranilast 100, 200 and 400 mg/kg oral, 7th consecutive twice-daily dose): did not reach statistical significance; Dosing regimen producing the maximum anti-allodynic effect (tranilast 100-400 mg/kg oral, 7 consecutive twice-daily doses): maximum anti-allodynic effect appeared to be produced by the 300 mg/kg dosing regimen; Baseline PWT thresholds assessed prior to dose 1, 3, 5 and 7 (tranilast at all doses (100-400 mg/kg oral twice-daily)): not significantly different
